In brackets after ≈: the same amount, converted by molar mass.
Columns and labels:
[1] = test system: Huh7 (human liver cancer cell); experiment: Solid tumor cell growth inhibition, MTT, 72 h (Example 7); assay type: cell-based; conditions: Homo sapiens; 72 h, MTT, Huh-7
Method: (§1) Human solid tumor cell lines: Hep-2 (laryngeal carcinoma), A549 (human lung cancer), CaES-17 (esophageal cancer cell), PC-3 (prostate cancer), CNE (nasopharyngeal carcinoma cell) and SK-OV-3 (ovarian cancer cell), all of which are purchased from China Center For Type Culture Collection; RKO (human colon adenocarcinoma cell), MGC 803 (human gastric cancer cell), MG63 (osteosarcoma), and U87 MG (malignant glioma cell), all of which are purchased from Fuxiang Bio-tech Co. Ltd., Shanghai, China; PANC-1 (pancreatic cancer), Huh? (human liver cancer cell), Becap37 (human breast cancer cell), and Hela (human cervical cancer cell), all of which are donated by Cancer Research Institute of Zhejiang University, China.
(§2) Reagents: the same as in Example 5.
(§3) Obtaining 4000 well-growing human solid tumor cells and inoculating them into wells of a 96-well cell culture plate. The culture medium is DMEM High Glucose cell culture medium containing 10% fetal bovine serum. The plate is placed in a carbon dioxide cell incubator (5% CO2) at 37° C. and incubated for 24 hours. After been added with tetrandrine derivatives of different concentration and mixing uniformly, the plate is placed in a carbon dioxide cell incubator (5% CO2) at 37° C. and incubated for 72 hours. Then the viable cell concentration is determined by the MTT method and the cell viability (%) after drug treatment is calculated. In this experiment, the cell viability of control group (not treated with any compound) is set as 100%.

[2] = test system: A549 (human lung cancer); experiment: as above; assay type: cell-based; conditions: Homo sapiens; 72 h, MTT, A549
Method: as §1, §2, §3

[3] = test system: Becap37 (human breast cancer cell); experiment: as above; assay type: cell-based; conditions: Homo sapiens; 72 h, MTT, Becap-37
Method: as §1, §2, §3

[4] = test system: MGC 803 (human gastric cancer cell); experiment: as above; assay type: cell-based; conditions: Homo sapiens
Method: as §1, §2, §3

[5] = test system: PC-3 (prostate cancer); experiment: as above; assay type: cell-based, human; conditions: Homo sapiens; 72 h, MTT, PC-3
Method: as §1, §2, §3

[6] = test system: CaES-17 (esophageal cancer cell); experiment: as above; assay type: cell-based, human; conditions: Homo sapiens, CaEs17; 72 h, MTT, CAES-17
Method: as §1, §2, §3

[7] = test system: PANC-1 (pancreatic cancer); experiment: as above; assay type: cell-based, human; conditions: Homo sapiens; 72 h, MTT, PANC-1
Method: as §1, §2, §3

[8] = test system: MG63 (osteosarcoma); experiment: as above; assay type: cell-based, human; conditions: Homo sapiens; 72 h, MTT, MG-63
Method: as §1, §2, §3

[9] = test system: RPMI8226 (multiple myeloma); experiment: Multiple myeloma cell growth inhibition, MTT, 72 h (Example 6); assay type: cell-based, human; conditions: Homo sapiens, RPMI-8226; 72 h, MTT, RPMI8226
Method: Multiple myeloma and lymphoma cell lines: RPMI8226 (multiple myeloma), purchased from Fuxiang Bio-tech Co. Ltd., Shanghai, China.
as §2
(§4) Obtaining 6000 well-growing leukemia cells and inoculating them into wells of a 96-well cell culture plate. The culture medium is a 1640 cell culture medium containing 10% fetal bovine serum. After adding the tetrandrine derivatives of different concentrations and mixing uniformly, placing the plate in a carbon dioxide cell incubator (5% CO2) at 37° C. and incubated for 72 hours. Then the viable cell concentration is determined by the MTT method.

[10] = test system: K562/adr (drug-resistant, chronic myeloid leukemia, CML); experiment: Leukemia cell growth inhibition, MTT, 72 h (Example 5); assay type: cell-based, human; conditions: Homo sapiens, K562/Adr; 72 h, MTT
Description: (§5) Leukemia cell lines: leukemia cell lines: K562/adr (drug-resistant, chronic myeloid leukemia, CML), NB4 (acute promyelocytic leukemia, AML), Kasumi-1 (acute myeloid leukemia M2 type, AML-M2), Jurkat (acute lymphoblastic leukemia, ALL), all of which are donated by Cancer Research Institute of Zhejiang University, China; and H9 (acute lymphoblastic leukemia, ALL), which is purchased from China Center for Type Culture Collection.
(§6) Reagents: The standard sample of tetrandrine (TTD) is purchased from Ci Yuan Biotechnology Co., Ltd., Shaanxi, China; and the 5-substituted tetrandrine derivatives of the present invention.
as §4, with “incubating” for “incubated”

[11] = test system: Kasumi-1 (acute myeloid leukemia M2 type, AML-M2); experiment: as above; assay type: cell-based, human; conditions: Homo sapiens, Kasumi 1
Description: as §5, §6
as §4, with “incubating” for “incubated”

[12] = test system: NB4 (acute promyelocytic leukemia, AML); experiment: as above; assay type: cell-based, human; conditions: Homo sapiens; 72 h, MTT
Description: as §5, §6
as §4, with “incubating” for “incubated”

[13] = test system: H9 (acute lymphoblastic leukemia, ALL); experiment: as above; assay type: cell-based, human; conditions: Homo sapiens; 72 h, MTT
Description: as §5, §6
as §4, with “incubating” for “incubated”

[14] = test system: Jurkat (acute lymphoblastic leukemia, ALL); experiment: as above; assay type: cell-based, human; conditions: Homo sapiens, Jurkat; 72 h, MTT
Description: as §5, §6
as §4, with “incubating” for “incubated”

[15] = test system: RKO (human colon adenocarcinoma cell); experiment: Solid tumor cell growth inhibition, MTT, 72 h (Example 7); assay type: cell-based; conditions: Homo sapiens; 72 h, MTT, RKO
Method: as §1, §2, §3

Row | IC50 [1] [mg/L] | IC90 [1] [mg/L] | IC50 [2] [mg/L] | IC90 [2] [mg/L] | IC50 [3] [mg/L] | IC90 [3] [mg/L] | IC50 [4] [mg/L] | IC90 [4] [mg/L] | IC50 [5] [mg/L] | IC90 [5] [mg/L] | IC50 [6] [mg/L] | IC90 [6] [mg/L] | IC50 [7] [mg/L] | IC90 [7] [mg/L] | IC50 [8] [mg/L] | IC90 [8] [mg/L] | IC50 [9] [mg/L] | IC90 [9] [mg/L] | IC50 [10] [mg/L] | IC90 [10] [mg/L] | Structure (SMILES) | further results
1 | 3.61 (≈ 4.86 µM) | 4.98 (≈ 6.7 µM) | 1.35 (≈ 1.82 µM) | 4.58 (≈ 6.16 µM) | 1.4 (≈ 1.88 µM) | 4.85 (≈ 6.53 µM) | 4.38 (≈ 5.9 µM) | > 10 | 4.53 (≈ 6.1 µM) | 7.51 (≈ 10.1 µM) | 3.06 (≈ 4.12 µM) | 9.92 (≈ 13.4 µM) | 5.79 (≈ 7.79 µM) | 9 (≈ 12.1 µM) | 1.26 (≈ 1.7 µM) | 4.35 (≈ 5.86 µM) | 0.09 (≈ 0.121 µM) | 0.76 (≈ 1.02 µM) | 0.63 (≈ 0.848 µM) | 3 (≈ 4.04 µM) | COc1ccc2cc1Oc1ccc(cc1)C[C@H]1c3cc(c(OC)cc3CCN1C)Oc1c(OC)c(OC)c(CNCc3ccccn3)c3c1[C@H](C2)N(C)CC3 [BS-TE-352] | IC50 [11]: 1.1 mg/L (≈ 1.48 µM); IC90 [11]: 4.84 mg/L (≈ 6.51 µM); IC50 [12]: 1.05 mg/L (≈ 1.41 µM); IC90 [12]: 3.88 mg/L (≈ 5.22 µM); IC50 [13]: 1.31 mg/L (≈ 1.76 µM); IC90 [13]: 4.5 mg/L (≈ 6.06 µM); IC50 [14]: 1.38 mg/L (≈ 1.86 µM); IC90 [14]: 4.74 mg/L (≈ 6.38 µM)
2 | 3.07 (≈ 4.32 µM) | 4.98 (≈ 7.02 µM) | 1.96 (≈ 2.76 µM) | 9.36 (≈ 13.2 µM) | 2.95 (≈ 4.16 µM) | 9.79 (≈ 13.8 µM) | 3.63 (≈ 5.11 µM) | 10.5 (≈ 14.7 µM) | 6.41 (≈ 9.03 µM) | 8 (≈ 11.3 µM) | 2.4 (≈ 3.38 µM) | 20.8 (≈ 29.4 µM) | 5.89 (≈ 8.3 µM) | 14.7 (≈ 20.7 µM) | 1.41 (≈ 1.99 µM) | 3.11 (≈ 4.38 µM) | 0.3 (≈ 0.423 µM) | 2.07 (≈ 2.92 µM) | 4.78 (≈ 6.73 µM) | 10.4 (≈ 14.7 µM) | COc1ccc2cc1Oc1ccc(cc1)C[C@H]1c3cc(c(OC)cc3CCN1C)Oc1c(OC)c(OC)c(CNCC(C)O)c3c1[C@H](C2)N(C)CC3 (stereo partly shown) [BS-TE-315] | IC50 [15]: 1.64 mg/L (≈ 2.31 µM); IC90 [15]: 3.39 mg/L (≈ 4.78 µM); IC50 [11]: 1.99 mg/L (≈ 2.8 µM); IC90 [11]: 7.72 mg/L (≈ 10.9 µM); IC50 [12]: 1.63 mg/L (≈ 2.3 µM); IC90 [12]: 5.66 mg/L (≈ 7.97 µM); IC50 [13]: 2.6 mg/L (≈ 3.66 µM); IC90 [13]: 4.83 mg/L (≈ 6.8 µM); IC50 [14]: 4.53 mg/L (≈ 6.38 µM); IC90 [14]: 11 mg/L (≈ 15.6 µM)
3 | 3.5 (≈ 5.04 µM) | 4.9 (≈ 7.06 µM) | 1.89 (≈ 2.72 µM) | 9.07 (≈ 13.1 µM) | 2.5 (≈ 3.6 µM) | 7.86 (≈ 11.3 µM) | 3.17 (≈ 4.57 µM) | 11.8 (≈ 17 µM) | 6.04 (≈ 8.7 µM) | 8 (≈ 11.5 µM) | 4.05 (≈ 5.84 µM) | 25.6 (≈ 36.9 µM) | 6.31 (≈ 9.09 µM) | 13.2 (≈ 19 µM) | 1.89 (≈ 2.72 µM) | 4 (≈ 5.76 µM) | 0.18 (≈ 0.259 µM) | 1.74 (≈ 2.51 µM) | 1.97 (≈ 2.84 µM) | 12 (≈ 17.3 µM) | COc1ccc2cc1Oc1ccc(cc1)C[C@H]1c3cc(c(OC)cc3CCN1C)Oc1c(OC)c(OC)c(CNC(C)C)c3c1[C@H](C2)N(C)CC3 [BS-TE-311] | IC50 [15]: 1.96 mg/L (≈ 2.82 µM); IC90 [15]: 4.25 mg/L (≈ 6.12 µM); IC50 [11]: 1.33 mg/L (≈ 1.92 µM); IC90 [11]: 5.63 mg/L (≈ 8.11 µM); IC50 [12]: 0.83 mg/L (≈ 1.2 µM); IC90 [12]: 4 mg/L (≈ 5.76 µM); IC50 [13]: 2.29 mg/L (≈ 3.3 µM); IC90 [13]: 3.99 mg/L (≈ 5.75 µM); IC50 [14]: 3.15 mg/L (≈ 4.54 µM); IC90 [14]: 9.19 mg/L (≈ 13.2 µM)
4 | 2.52 (≈ 3.48 µM) | 4.85 (≈ 6.7 µM) | 2.36 (≈ 3.26 µM) | 6.66 (≈ 9.2 µM) | 1.99 (≈ 2.75 µM) | 4.12 (≈ 5.69 µM) | 2.34 (≈ 3.23 µM) | 5.54 (≈ 7.65 µM) | 3.43 (≈ 4.74 µM) | 4 (≈ 5.53 µM) | 1.83 (≈ 2.53 µM) | 7.21 (≈ 9.96 µM) | 3.61 (≈ 4.99 µM) | 5.72 (≈ 7.9 µM) | 0.6 (≈ 0.829 µM) | 1.19 (≈ 1.64 µM) | 0.18 (≈ 0.249 µM) | 0.999 (≈ 1.38 µM) | 0.98 (≈ 1.35 µM) | 2.39 (≈ 3.3 µM) | COCCCNCc1c2c3c(c(OC)c1OC)Oc1cc4c(cc1OC)CCN(C)[C@H]4Cc1ccc(cc1)Oc1cc(ccc1OC)C[C@@H]3N(C)CC2 [BS-TE-340] | IC50 [15]: 1.29 mg/L (≈ 1.78 µM); IC90 [15]: 2.45 mg/L (≈ 3.38 µM); IC50 [11]: 0.66 mg/L (≈ 0.912 µM); IC90 [11]: 1.8 mg/L (≈ 2.49 µM); IC50 [12]: 1.07 mg/L (≈ 1.48 µM); IC90 [12]: 2.87 mg/L (≈ 3.96 µM); IC50 [13]: 1.93 mg/L (≈ 2.67 µM); IC90 [13]: 3.23 mg/L (≈ 4.46 µM); IC50 [14]: 2.24 mg/L (≈ 3.09 µM); IC90 [14]: 4 mg/L (≈ 5.53 µM)
